# Columns and labels:
# Assay type in all cases: biochemical
# DYRK2 (h) = target: T1, DYRK2 (h) (Homo sapiens, UniProt Q92630); experiment: radiometric kinase assay (KinaseProfiler, Eurofins), DYRK2; conditions: in vitro radiometric kinase assay, tested at 1 nM to 10 000 nM, no pre-incubation; read-out: inhibitory activities (IC50 values) DYRK2
# T1 construct: purchased Eurofins (KinaseProfiler)
# T1 sequence (Q92630 1-601): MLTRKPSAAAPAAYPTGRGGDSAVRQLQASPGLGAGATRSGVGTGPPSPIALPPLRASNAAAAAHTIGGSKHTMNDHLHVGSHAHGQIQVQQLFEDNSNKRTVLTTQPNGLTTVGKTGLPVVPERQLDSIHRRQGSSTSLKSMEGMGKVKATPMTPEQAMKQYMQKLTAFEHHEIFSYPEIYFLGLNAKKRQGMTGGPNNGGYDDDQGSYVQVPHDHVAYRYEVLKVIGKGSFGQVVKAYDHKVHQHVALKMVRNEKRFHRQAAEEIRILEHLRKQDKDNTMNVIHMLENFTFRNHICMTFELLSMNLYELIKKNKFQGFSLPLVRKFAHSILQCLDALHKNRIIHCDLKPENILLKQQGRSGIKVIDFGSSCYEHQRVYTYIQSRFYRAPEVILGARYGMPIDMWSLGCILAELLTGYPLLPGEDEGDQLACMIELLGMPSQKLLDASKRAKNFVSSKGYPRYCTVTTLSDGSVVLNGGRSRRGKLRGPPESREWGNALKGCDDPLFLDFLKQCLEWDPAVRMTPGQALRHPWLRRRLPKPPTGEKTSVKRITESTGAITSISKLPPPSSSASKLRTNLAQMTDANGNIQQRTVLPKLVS
# Protocol: (§1) The compounds were profiled in the radiometric assays (KinaseProfiler, Eurofins).
# (§2) All compounds were prepared to 50x final assay concentration in 100% DMSO. This working stock of the compound was added to the assay well as the first component in the reaction, followed by the remaining components as detailed in the general assay protocols below. There was no pre-incubation step between the compound and the kinase prior to initiation of the reaction.
# DYRK2 (h) was incubated with 8 mM MOPS pH 7.0, 0.2 mM EDTA, 2 mg/mL casein, 10 mM magnesium acetate and γ-^33P-ATP (specific activity and concentration as required). The reaction was initiated by the addition of the Mg/ATP mix. After incubation for 40 minutes at room temperature, the reaction was stopped by the addition of phosphoric acid to a concentration of 0.5%. An aliquot of the reaction was then spotted onto a filter and washed four times for 4 minutes in 0.425% phosphoric acid and once in methanol prior to drying and scintillation counting.
# (§3) Kinase activity data were expressed as the percent remaining kinase activity in tested samples compared to the vehicle (DMSO) reactions. The compounds were tested at the following concentrations: 1 nM, 3 nM, 10 nM, 30 nM, 100 nM, 300 nM, 1000 nM, 3000 nM, and 10 000 nM; IC50 values and curve fits were then obtained.
# TAF1L(h) = target: T2, TAF1L(h) (Homo sapiens, UniProt Q8IZX4); experiment: radiometric kinase assay (KinaseProfiler, Eurofins), TAF1L; conditions: in vitro radiometric kinase assay, tested at 1 nM to 10 000 nM, no pre-incubation; read-out: inhibitory activities (IC50 values) TAF1L
# T2 construct: purchased Eurofins (KinaseProfiler)
# Protocol: as §1
# Briefly, kinases were diluted in the buffer shown below prior to addition to the reaction mix: • CDKL3, TAF1L: 20 mM Tris/HCl pH 8.5, 0.2 mM EDTA, 0.1% β-mercaptoethanol, 0.01% Brij-35, 5% glycerol, 1 mg/ml BSA; • Haspin: 15 mM MOPS, 0.75 mM EDTA, 0.0075% Brij-35, 3.75% Glycerol, 150 mM NaCl, 0.1% β-mercaptoethanol, 1 mg/mLBSA; • CDKL4, CLK2, PIM1, TRB2: […], 1 mM EDTA, 0.01% Brij-35, 5% Glycerol, 0.1% β-mercaptoethanol, 1 mg/mL BSA.
# as §2
# TAF1L(h) was incubated with 20 mM Tris/HCl pH 8.5, 0.2 mM EDTA, 250 µM RRRFRPASPLRGPPK (SEQ ID NO. 1), 10 mM magnesium acetate and γ-^33P-ATP (specific activity and concentration as required). The reaction was initiated by the addition of the Mg/ATP mix. After incubation for 120 minutes at room temperature, the reaction was stopped by the addition of phosphoric acid to a concentration of 0.5%. An aliquot of the stopped reaction was spotted onto a filter and washed four times for 4 minutes in 0.425% phosphoric acid and once in methanol prior to drying and scintillation counting.
# as §3
# Haspin (h) = target: T3, Haspin (h) (Homo sapiens, UniProt Q8TF76); experiment: radiometric kinase assay (KinaseProfiler, Eurofins), Haspin; conditions: in vitro radiometric kinase assay, tested at 1 nM to 10 000 nM, no pre-incubation; read-out: inhibitory activities (IC50 values) Haspin
# T3 construct: purchased Eurofins (KinaseProfiler)
# T3 sequence (Q8TF76 1-798): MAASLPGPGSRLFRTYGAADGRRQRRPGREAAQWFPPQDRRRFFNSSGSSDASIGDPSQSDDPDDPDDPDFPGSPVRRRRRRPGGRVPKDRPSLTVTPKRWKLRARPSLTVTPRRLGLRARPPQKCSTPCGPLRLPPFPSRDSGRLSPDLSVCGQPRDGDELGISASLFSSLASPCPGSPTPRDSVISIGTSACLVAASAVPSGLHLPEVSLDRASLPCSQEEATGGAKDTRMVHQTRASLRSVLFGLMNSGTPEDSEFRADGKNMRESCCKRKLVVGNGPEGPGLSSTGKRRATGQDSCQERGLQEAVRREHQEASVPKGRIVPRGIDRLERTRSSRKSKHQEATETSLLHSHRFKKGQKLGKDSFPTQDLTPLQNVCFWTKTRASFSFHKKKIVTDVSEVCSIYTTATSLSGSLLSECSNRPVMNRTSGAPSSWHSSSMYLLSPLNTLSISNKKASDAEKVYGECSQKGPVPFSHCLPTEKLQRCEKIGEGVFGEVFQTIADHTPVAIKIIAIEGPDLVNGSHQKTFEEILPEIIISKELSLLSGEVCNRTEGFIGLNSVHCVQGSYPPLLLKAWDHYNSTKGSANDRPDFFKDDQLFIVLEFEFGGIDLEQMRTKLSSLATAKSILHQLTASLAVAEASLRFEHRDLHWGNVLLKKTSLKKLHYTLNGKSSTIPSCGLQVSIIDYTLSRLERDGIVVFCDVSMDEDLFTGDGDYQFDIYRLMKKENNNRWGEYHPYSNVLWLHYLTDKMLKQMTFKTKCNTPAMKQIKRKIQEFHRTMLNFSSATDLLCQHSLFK
# Method in brief: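 Human Haspin in 8 mM MOPS pH 7.0 with 500 µM RARTLSFAEPG, 10 mM Mg acetate and γ-33P-ATP; compound added without preincubation. Reaction ran 40 min at room temperature, then filter-bound 33P was counted. Nine concentrations from 1 to 10 000 nM gave % remaining activity versus DMSO, and IC50 came from curve fit.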
# T2 sequence (Q8IZX4 whole entry): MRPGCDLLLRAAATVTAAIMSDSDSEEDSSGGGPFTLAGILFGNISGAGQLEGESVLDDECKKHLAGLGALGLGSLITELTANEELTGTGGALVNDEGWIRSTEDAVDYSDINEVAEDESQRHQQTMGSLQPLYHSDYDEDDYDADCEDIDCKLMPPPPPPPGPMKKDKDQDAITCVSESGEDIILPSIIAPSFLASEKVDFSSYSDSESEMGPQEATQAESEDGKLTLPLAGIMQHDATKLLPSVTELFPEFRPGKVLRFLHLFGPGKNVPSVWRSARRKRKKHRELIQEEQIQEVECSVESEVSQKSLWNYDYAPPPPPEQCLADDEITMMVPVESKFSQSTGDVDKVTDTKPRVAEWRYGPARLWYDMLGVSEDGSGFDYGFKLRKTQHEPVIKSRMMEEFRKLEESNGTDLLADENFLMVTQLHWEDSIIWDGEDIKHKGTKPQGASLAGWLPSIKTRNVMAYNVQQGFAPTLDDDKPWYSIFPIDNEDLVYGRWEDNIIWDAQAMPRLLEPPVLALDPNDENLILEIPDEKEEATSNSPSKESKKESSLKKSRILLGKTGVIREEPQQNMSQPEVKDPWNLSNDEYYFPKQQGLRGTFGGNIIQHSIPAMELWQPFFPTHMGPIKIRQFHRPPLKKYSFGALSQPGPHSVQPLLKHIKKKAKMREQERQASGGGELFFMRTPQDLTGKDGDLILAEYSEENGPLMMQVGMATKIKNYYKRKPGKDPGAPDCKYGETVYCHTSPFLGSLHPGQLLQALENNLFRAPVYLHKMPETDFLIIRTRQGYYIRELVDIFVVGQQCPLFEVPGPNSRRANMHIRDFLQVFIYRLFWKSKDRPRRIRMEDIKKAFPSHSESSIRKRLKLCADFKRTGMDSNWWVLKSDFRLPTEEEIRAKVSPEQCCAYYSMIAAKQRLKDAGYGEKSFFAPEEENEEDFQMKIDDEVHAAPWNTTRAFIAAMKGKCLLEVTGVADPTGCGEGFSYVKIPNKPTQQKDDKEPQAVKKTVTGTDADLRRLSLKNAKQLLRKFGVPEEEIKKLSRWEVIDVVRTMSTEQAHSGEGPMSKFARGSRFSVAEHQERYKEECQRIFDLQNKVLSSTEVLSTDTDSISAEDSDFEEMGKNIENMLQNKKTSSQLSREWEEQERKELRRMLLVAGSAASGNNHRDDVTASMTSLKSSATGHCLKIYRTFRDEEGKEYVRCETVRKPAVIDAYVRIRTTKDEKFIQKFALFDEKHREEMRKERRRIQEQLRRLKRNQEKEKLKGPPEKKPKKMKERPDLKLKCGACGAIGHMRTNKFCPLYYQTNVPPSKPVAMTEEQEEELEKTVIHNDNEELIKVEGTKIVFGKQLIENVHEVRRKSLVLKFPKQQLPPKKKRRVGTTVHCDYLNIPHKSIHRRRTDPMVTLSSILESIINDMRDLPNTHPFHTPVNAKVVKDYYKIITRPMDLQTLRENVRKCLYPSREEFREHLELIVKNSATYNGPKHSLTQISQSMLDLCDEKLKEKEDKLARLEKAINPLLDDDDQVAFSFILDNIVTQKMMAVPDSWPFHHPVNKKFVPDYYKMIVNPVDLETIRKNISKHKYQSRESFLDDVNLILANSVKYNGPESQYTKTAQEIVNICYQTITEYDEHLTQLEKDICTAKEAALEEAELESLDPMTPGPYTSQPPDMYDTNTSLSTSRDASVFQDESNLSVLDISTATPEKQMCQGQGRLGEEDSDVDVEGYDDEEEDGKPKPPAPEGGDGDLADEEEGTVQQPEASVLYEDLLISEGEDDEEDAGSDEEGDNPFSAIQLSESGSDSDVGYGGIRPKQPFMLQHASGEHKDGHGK
Compound,IC50 (DYRK2 (h)),IC50 (TAF1L(h)),IC50 (Haspin (h))
"Cn1cc(-c2cc(Cl)c3scc(-c4ccncc4)c3n2)cn1 [Preparative Example 162, 7-chloro-5-(1-methyl-1H-pyrazol-4-yl)-3-(pyridin-4-yl)thieno[3,2-b]pyridine]",3000 to 10000 nM,100 to 499 nM,500 to 3000 nM
"Cn1ccc(-c2cc(Cl)c3scc(-c4ccncc4)c3n2)n1 [Preparative Example 163, 7-chloro-5-(1-methyl-1H-pyrazol-3-yl)-3-(pyridin-4-yl)thieno[3,2-b]pyridine]",3000 to 10000 nM,500 to 3000 nM,100 to 499 nM
"COc1cc(-c2ccn(C)n2)nc2c(-c3ccncc3)csc12 [Preparative Example 165, 7-methoxy-5-(1-methyl-1H-pyrazol-3-yl)-3-(pyridin-4-yl)thieno[3,2-b]pyridine]",3000 to 10000 nM,500 to 3000 nM,100 to 499 nM

# Next, values leading:
IC50 (DYRK2 (h)),IC50 (TAF1L(h)),IC50 (Haspin (h)),Compound
500 to 3000 nM,500 to 3000 nM,500 to 3000 nM,"Cc1sc2ccc(-c3cnn(C)c3)nc2c1-c1ccncc1 [Preparative Example 142, 2-methyl-5-(1-methyl-1H-pyrazol-4-yl)-3-(pyridin-4-yl)thieno[3,2-b]pyridine]"
3000 to 10000 nM,500 to 3000 nM,500 to 3000 nM,"Cc1cc2scc(-c3ccncc3)c2nc1-c1cnn(C)c1 [Preparative Example 150, 6-methyl-5-(1-methyl-1H-pyrazol-4-yl)-3-(pyridin-4-yl)thieno[3,2-b]pyridine]"
3000 to 10000 nM,3000 to 10000 nM,20 to 99 nM,"Cc1cc2scc(-c3ccncc3)c2nc1-c1ccn(C)n1 [Preparative Example 151, 6-methyl-5-(1-methyl-1H-pyrazol-3-yl)-3-(pyridin-4-yl)thieno[3,2-b]pyridine]"
3000 to 10000 nM,3000 to 10000 nM,500 to 3000 nM,"Cc1cc(-c2cnn(C)c2)nc2c(-c3ccncc3)csc12 [Preparative Example 157, 7-methyl-5-(1-methyl-1H-pyrazol-4-yl)-3-(pyridin-4-yl)thieno[3,2-b]pyridine]"
